Experiment [1] has as its target Mitogen-activated protein kinase 11 (Homo sapiens) (UniProt Q15759). Put plainly: Selectivity interaction (Kinase panel (KiNativ target engagement assay in Jurkat cells)) EUB0001635a MAPK11. Format: cell-based. Particulars: Selectivity number of off-targets 0.0, Selectivity number of targets 233.0, Source Knowledge https://www.sciencedirect.com/science/article/pii/S2451945619300674?via%3Dihub, at 1 µM.

Experiment [2] deals with Serine/threonine-protein kinase NIM1 (Homo sapiens, UniProt Q8IY84). Put plainly: Selectivity interaction (KinomeScan (DiscoverX)) EUB0000666a NIM1K. As to conditions: at 10 µM.
Chain of Serine/threonine-protein kinase NIM1 (Q8IY84 whole entry): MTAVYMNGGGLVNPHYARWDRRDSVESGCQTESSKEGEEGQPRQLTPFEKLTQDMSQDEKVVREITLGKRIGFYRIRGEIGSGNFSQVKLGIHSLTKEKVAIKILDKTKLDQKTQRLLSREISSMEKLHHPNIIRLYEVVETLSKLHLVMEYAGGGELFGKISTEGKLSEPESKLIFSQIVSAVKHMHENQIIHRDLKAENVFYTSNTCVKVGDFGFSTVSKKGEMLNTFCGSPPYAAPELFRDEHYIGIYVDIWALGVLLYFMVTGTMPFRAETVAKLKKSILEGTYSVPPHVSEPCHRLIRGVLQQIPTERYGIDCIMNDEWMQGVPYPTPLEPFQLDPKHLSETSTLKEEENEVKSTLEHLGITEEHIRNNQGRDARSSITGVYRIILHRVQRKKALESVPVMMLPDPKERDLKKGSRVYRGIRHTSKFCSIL
For experiment [3], the target named is Glycogen synthase kinase-3 beta (Homo sapiens, UniProt P49841). The experiment is described as follows: Selectivity interaction (KinomeScan (DiscoverX)) EUB0000655a GSK3B. As to conditions: at 10 µM.
Chain of Glycogen synthase kinase-3 beta (P49841 whole entry, looked up): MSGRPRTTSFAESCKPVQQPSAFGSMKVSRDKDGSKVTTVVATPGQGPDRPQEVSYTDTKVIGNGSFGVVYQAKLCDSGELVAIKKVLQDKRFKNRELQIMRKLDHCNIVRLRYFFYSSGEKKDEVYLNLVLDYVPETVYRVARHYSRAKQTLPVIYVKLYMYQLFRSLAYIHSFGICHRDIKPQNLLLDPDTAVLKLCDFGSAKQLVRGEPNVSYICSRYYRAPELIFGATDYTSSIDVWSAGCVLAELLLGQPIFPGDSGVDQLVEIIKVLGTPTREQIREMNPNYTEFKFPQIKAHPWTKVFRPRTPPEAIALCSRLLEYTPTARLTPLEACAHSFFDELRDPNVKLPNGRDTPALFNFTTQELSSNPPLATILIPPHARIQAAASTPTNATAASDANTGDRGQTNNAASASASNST
Experiment [4] concerns the target T1, Scaffold protein ILK (Homo sapiens) (UniProt Q13418).
T1 sequence (whole entry): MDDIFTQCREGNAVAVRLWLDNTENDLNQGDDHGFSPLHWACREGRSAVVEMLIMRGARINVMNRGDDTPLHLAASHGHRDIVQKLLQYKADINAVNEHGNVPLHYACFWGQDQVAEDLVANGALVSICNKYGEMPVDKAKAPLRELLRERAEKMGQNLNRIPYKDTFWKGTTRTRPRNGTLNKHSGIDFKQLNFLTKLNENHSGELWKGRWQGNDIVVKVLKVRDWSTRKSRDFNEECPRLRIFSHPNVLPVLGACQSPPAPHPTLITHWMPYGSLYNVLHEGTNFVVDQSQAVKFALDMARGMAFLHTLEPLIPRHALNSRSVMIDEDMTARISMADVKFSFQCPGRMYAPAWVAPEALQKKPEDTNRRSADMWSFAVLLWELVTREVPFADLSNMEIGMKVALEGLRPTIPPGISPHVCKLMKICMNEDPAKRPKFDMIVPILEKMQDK
The experiment is described as follows: Selectivity interaction (ActivX KiNativ screen (ex vivo kinase selectivity in human PBMCs)) EUB0001619a ILK. Format: cell-based. As to conditions: PBMC, at 1 µM.

Experiment [5] deals with ALK tyrosine kinase receptor (Homo sapiens, UniProt Q9UM73). The experiment is described as follows: Selectivity interaction (Kinase panel (33PanQinase(R) Activity Assay)) EUB0000877a ALK.
Chain of ALK tyrosine kinase receptor (Q9UM73 whole entry): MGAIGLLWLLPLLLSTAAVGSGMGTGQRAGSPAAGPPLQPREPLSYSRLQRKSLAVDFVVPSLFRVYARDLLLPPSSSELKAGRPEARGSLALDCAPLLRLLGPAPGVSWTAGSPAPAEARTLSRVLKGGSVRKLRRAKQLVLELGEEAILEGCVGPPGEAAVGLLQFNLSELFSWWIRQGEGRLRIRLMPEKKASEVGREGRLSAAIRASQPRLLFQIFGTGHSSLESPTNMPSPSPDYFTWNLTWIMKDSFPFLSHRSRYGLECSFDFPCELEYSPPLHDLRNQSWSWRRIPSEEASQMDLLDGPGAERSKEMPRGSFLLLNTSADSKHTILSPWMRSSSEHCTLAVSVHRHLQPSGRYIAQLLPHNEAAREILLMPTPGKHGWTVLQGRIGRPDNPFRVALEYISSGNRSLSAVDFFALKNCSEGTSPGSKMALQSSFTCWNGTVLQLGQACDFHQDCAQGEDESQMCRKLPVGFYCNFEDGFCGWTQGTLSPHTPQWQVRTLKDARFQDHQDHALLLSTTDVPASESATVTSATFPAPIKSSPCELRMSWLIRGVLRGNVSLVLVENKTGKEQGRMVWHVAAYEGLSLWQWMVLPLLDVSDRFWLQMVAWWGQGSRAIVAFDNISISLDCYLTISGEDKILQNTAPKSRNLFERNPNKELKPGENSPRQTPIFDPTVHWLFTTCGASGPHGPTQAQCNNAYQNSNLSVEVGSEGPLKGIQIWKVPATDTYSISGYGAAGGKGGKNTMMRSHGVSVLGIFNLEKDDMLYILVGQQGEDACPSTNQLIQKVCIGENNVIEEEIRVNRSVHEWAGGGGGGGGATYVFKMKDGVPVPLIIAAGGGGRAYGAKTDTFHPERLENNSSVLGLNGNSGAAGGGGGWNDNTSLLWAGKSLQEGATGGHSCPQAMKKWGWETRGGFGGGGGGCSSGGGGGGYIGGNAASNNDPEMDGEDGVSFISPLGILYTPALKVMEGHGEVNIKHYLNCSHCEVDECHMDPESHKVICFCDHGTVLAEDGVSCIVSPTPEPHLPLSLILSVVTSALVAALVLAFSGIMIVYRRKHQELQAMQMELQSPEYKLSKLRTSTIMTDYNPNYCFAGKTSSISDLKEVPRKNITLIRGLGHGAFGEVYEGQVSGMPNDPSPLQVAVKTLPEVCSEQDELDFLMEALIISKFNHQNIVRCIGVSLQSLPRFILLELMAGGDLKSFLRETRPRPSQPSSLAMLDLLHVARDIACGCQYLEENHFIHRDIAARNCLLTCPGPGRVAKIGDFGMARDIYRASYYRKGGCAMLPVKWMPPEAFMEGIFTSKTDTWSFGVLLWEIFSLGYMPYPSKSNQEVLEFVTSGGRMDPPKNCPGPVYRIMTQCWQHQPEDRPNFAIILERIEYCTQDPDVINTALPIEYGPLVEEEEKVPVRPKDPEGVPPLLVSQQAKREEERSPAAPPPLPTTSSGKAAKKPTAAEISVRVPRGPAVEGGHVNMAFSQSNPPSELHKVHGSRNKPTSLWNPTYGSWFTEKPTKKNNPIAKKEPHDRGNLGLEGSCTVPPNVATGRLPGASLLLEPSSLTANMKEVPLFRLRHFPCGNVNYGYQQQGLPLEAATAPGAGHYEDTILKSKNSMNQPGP
The target of experiment [6] is T2, Serine/threonine-protein kinase NLK (Homo sapiens) (UniProt Q9UBE8).
T2 sequence (whole entry): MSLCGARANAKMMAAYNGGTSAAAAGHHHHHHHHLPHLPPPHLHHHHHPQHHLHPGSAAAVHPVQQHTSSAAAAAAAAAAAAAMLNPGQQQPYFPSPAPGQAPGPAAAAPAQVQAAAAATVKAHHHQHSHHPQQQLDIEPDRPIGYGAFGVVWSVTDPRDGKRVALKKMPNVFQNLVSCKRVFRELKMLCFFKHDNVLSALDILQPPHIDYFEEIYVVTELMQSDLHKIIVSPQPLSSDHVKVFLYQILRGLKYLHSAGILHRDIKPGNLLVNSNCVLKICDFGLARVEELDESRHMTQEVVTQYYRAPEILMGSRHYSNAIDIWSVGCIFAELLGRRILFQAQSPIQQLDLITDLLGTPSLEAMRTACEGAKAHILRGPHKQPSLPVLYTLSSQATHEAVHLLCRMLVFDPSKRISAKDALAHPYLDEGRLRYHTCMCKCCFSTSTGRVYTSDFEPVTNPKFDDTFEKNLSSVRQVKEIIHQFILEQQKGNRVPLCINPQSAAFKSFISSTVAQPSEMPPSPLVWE
The experiment is described as follows: Selectivity interaction (Kinase panel (Invitrogen)) EUB0000639a NLK. Particulars: at 200 nM.

Experiment [7] addresses Fibroblast growth factor receptor 1 (Homo sapiens, UniProt P11362). The experiment is described as follows: Selectivity interaction (KinomeScan (DiscoverX)) EUB0001049a FGFR1. As to conditions: at 1 µM.
For experiment [8], the target named is T3, TGF-beta receptor type-1 (Homo sapiens) (UniProt P36897).
T3 sequence (whole entry): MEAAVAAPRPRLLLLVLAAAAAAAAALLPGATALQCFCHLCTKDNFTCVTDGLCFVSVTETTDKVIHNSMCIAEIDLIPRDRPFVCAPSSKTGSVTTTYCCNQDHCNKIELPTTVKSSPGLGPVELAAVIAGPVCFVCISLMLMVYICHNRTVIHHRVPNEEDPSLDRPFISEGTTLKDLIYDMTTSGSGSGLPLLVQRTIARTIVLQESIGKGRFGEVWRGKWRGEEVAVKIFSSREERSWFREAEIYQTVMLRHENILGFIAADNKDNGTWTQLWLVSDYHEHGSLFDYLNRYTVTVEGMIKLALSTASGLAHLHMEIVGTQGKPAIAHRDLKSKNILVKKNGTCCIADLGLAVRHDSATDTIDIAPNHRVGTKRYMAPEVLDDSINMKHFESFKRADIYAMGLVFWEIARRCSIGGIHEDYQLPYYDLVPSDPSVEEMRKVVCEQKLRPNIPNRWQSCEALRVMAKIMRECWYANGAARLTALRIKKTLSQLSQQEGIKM
The experiment is described as follows: Selectivity interaction (ProQinase) EUB0000171b TGFBR1.

Experiment [9] addresses T4, Homeodomain-interacting protein kinase 4 (Homo sapiens) (UniProt Q8NE63).
T4 sequence (whole entry): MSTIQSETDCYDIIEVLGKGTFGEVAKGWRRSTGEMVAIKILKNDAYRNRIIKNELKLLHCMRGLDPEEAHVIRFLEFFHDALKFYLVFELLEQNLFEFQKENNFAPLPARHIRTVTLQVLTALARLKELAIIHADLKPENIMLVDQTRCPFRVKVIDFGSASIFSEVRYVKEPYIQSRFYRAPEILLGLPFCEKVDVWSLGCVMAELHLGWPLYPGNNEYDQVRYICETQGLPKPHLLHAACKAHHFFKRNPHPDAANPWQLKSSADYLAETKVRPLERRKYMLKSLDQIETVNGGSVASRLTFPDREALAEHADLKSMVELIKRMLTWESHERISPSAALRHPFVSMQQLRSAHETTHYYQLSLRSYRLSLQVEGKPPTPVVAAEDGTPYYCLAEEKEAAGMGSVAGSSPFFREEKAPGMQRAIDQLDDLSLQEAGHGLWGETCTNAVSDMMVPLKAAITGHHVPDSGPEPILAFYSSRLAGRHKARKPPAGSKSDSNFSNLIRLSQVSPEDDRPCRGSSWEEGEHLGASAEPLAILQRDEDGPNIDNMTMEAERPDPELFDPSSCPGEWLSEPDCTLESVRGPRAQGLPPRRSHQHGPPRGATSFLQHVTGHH
Put plainly: Selectivity interaction (ProQinase) EUB0000171b HIPK4.

Experiment [10] addresses TGF-beta receptor type-2 (Homo sapiens) (UniProt P37173). The experiment is described as follows: Selectivity interaction (ProQinase) EUB0000171b TGFBR2.
Experiment [11] has as its target Death-associated protein kinase 2 (Homo sapiens) (UniProt Q9UIK4). The experiment is described as follows: Selectivity interaction (KinomeScan (DiscoverX)) EUB0000618a DAPK2. Particulars: at 10 µM.
For experiment [12], the target named is Serine/threonine-protein kinase 26 (Homo sapiens, UniProt Q9P289). The experiment is described as follows: Selectivity interaction (KinomeScan (DiscoverX)) EUB0000595a STK26. As to conditions: at 10 µM.
Chain of Serine/threonine-protein kinase 26 (Q9P289 2-416 limits assumed): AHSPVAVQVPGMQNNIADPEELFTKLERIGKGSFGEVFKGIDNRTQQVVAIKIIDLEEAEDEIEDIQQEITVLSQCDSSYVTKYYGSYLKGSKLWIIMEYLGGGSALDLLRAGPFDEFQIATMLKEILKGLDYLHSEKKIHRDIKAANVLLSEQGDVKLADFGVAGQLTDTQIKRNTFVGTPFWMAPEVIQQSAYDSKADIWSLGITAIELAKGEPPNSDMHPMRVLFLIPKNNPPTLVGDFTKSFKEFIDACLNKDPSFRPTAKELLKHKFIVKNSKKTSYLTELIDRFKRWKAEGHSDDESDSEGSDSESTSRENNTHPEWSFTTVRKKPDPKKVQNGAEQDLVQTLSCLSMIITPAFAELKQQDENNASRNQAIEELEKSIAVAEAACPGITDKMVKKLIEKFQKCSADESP

A value given as a limit tells only on which side of the number the result lay.

Chain of TGF-beta receptor type-2 (Homo sapiens) (P37173 whole entry): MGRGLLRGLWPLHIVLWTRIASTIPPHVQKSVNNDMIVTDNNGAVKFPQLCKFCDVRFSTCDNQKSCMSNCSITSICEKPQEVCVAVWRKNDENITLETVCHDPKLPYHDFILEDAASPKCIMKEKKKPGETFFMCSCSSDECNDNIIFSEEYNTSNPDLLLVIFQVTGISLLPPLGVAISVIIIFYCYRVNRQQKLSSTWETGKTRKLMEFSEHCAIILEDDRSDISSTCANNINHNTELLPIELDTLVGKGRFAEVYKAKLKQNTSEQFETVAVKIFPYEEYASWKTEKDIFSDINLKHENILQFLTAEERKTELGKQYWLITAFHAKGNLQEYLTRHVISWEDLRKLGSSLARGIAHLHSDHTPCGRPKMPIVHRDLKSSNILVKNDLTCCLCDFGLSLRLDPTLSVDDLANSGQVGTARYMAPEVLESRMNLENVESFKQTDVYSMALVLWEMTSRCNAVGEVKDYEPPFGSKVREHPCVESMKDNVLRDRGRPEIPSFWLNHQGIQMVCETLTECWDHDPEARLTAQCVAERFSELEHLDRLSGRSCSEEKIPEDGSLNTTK
Chain of Mitogen-activated protein kinase 11 (Homo sapiens) (Q15759 whole entry): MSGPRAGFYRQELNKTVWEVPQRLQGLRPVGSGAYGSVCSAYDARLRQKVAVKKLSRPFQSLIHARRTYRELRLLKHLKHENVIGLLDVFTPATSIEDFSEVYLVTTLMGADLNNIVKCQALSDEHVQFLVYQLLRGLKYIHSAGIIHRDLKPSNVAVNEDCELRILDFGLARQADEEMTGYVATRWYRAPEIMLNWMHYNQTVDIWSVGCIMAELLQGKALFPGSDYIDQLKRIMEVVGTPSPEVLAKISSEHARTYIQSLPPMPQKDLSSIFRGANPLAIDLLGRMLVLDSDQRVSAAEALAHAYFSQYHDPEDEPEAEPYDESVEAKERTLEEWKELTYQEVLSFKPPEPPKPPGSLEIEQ
Chain of Fibroblast growth factor receptor 1 (P11362 22-822 limits assumed): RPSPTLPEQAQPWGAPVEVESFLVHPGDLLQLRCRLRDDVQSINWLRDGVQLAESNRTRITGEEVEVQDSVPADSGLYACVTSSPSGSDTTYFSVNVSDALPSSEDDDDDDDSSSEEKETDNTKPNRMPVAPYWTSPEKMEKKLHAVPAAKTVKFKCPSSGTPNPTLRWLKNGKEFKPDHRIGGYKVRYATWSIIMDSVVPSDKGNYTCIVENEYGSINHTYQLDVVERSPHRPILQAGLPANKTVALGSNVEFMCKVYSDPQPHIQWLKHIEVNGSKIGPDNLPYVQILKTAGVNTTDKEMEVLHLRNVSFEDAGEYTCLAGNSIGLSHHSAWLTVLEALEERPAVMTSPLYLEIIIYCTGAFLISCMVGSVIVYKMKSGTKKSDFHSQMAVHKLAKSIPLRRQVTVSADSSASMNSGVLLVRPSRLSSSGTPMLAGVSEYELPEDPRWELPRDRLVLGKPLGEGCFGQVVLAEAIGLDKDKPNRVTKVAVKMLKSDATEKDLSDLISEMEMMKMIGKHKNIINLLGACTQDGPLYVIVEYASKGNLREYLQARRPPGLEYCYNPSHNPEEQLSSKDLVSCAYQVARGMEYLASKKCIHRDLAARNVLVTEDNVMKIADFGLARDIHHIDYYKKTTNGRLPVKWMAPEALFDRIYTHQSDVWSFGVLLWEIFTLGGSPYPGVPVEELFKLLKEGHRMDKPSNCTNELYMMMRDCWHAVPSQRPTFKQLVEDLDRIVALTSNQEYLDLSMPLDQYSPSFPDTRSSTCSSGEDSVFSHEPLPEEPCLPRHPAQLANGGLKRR
Chain of Death-associated protein kinase 2 (Homo sapiens) (Q9UIK4 whole entry, looked up): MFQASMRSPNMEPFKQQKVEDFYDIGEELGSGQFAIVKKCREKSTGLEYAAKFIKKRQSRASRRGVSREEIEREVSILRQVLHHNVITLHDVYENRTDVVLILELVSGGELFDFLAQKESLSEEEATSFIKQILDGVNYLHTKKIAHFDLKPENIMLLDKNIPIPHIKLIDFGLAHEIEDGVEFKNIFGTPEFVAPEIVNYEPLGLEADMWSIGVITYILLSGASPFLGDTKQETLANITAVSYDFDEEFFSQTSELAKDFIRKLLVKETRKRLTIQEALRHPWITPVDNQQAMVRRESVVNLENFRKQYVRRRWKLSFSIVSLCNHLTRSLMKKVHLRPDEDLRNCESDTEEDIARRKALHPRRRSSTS

In the case of `C=CC(=O)Nc1ccc(C(=O)Nc2[nH]nc3c2CN(C(=O)N[C@H](CN(C)C)c2ccccc2)C3(C)C)cc1`, the % of engagement in [1] is -9.9%. Molecule `O=C(NOC[C@H](O)CO)c1ccc(F)c(F)c1Nc1ccc(I)cc1F` came in with a % of control in experiment [2] of 100%. `CN(C)CCOc1ccc(-c2nc(-c3ccncc3)c(-c3ccc4c(c3)CC/C4=N\O)[nH]2)cc1` gave a % of control in experiment [3] of 81%. On to `N#Cc1cccc(-c2c[nH]c3ncnc(N4CCOCC4)c23)c1`, for which, in experiment [4], the % of inhibition is -12%.

By IC50 is commonly meant the midpoint of a concentration-inhibition curve. Read a low IC50 as greater potency in that assay. Regarding `CCC(=O)N1CC[C@H](Nc2ncnc3c2CN(c2cnc(OC)c(C(F)(F)F)c2)CC3)C1` [LENIOLISIB], in experiment [5], the IC50 is greater than 10 µM. With `CC[C@@H]1[C@H](F)C(=O)N[C@@H]1COc1nccc2cc(C(N)=O)c(OC)cc12` [ZIMLOVISERTIB], in experiment [6], the % of inhibition is 10.2%. With `COc1cc(Nc2nc(C)cc(-c3cnn4nc(OC)ccc34)n2)cc(C(F)(F)F)c1`, in experiment [7], the % of control was 98%. Regarding `C=CC(=O)Nc1cccc(C(=O)Nc2ccc(Nc3cc(-c4[nH]c(SC)nc4C)ccn3)cc2)c1`, the % of control in experiment [8] (at 1 µM) stood at 106%; in [8] (at 5 µM), 92%; in experiment [9] (at 1 µM), 76%; in [9] (at 5 µM) it was 37%; in [10] (at 1 µM), 53%; in experiment [10] (at 5 µM), 4%. In the case of `O[C@H]1CC[C@H](Nc2ncc3nc(Nc4c(F)cc(F)cc4F)n([C@H]4CCOC4)c3n2)CC1`, in [11], the % of control turned out to be 100%.

`COCC(=O)NC/C=C/c1ccc2ncnc(Nc3ccc(Oc4ccc(C)nc4)c(C)c3)c2c1` [CP-724714] gave a % of control in [12] of 90%.

Values taken from ChEMBL document CHEMBL5465560, “Selectivity Literature for EUbOPEN Chemogenomic Library” (2024).
